The values that follow come from US20100209931A1, “Compositions for Identifying Novel Compositions for the Treatment of Disease and Methods of Using Same” (priority 2009, published 2010).

The structures appear in SMILES notation. Entries after “also recorded” stand apart in the source; their conditions may differ.

For one test, the system named is cells lacking IRA2. The experiment in a line: growth of cells lacking IRA2, 96-well plates. It counts as cell-based, Saccharomyces cerevisiae.
Test [1] has as its system erg6Δ ira2Δ cells. In words: growth on solid agar media, serial dilutions spotted. Conditions: SC plates with compound, three days at 30° C.
For test [2], the system named is erg6Δ ira2Δ cells. The experiment in a line: 96-well plate growth assay, erg6Δ ira2Δ strain. Format: cell-based, Saccharomyces cerevisiae. To be noted: for sensitivity of growth to compound: erg6Δ ira2Δ, 96-well plate growth assay, optical density, 30° C.
The next test concerns MPNST cell lines. In words: growth of MPNST cell lines. Format: cell-based, human.
For a further test, the system named is erg6Δ cells. In words: 96-well plate growth assay, erg6Δ strain. Format: cell-based, Saccharomyces cerevisiae.
The test system of a further test is erg6Δ iralΔ ira2Δ. In words: 96-well plate growth assay, erg6Δ ira1Δ ira2Δ strain. To be noted: genotype erg6Δ iralΔ ira2Δ; OD 595 nm after 24 hours.

Description for erg6Δ iralΔ ira2Δ: Wild type yeast cells (MLY41 a strain derived from the Σ11278b background) and cells having the genotypes shown in Table 2 are grown overnight in SC media, 75 μL of culture at a starting optical density of 0.1 are added to a 96 well plate containing 75 μL of SC media with twice the desired final concentration of the compound of Formula I in 1% DMSO. Plates are incubated in a humidified 30° C. chamber and scanned on an optical density plate reader at 595 nm after 24 hours. […] Strains are treated as described above, and the growth of the culture is monitored for 24 hours at the indicated intervals. The points represent the mean of three wells per condition.

As for `CO[C@H]1C[C@@H]2CC[C@@H](C)[C@@](O)(O2)C(=O)C(=O)N2CCCC[C@H]2C(=O)O[C@H]([C@H](C)C[C@@H]2CC[C@@H](O)[C@H](OC)C2)CC(=O)[C@H](C)/C=C(\C)[C@@H](O)[C@@H](OC)C(=O)[C@H](C)C[C@H](C)/C=C/C=C/C=C/1C` [rapamycin], the “growth inhibition of cells lacking IRA2 by rapamycin alone” value in the test on cells lacking IRA2 (rapamycin dose used in combination, 24 hours) was “does not inhibit”.
Take `CC[C@@]1(O)C(=O)OCc2c1cc1n(c2=O)Cc2cc3ccccc3nc2-1` [camptothecin]: the “sensitivity of growth on agar media” value in the test on erg6Δ ira2Δ cells [1] is on record as “differential sensitivity; also recorded: sensitizes”.
`COc1cccc(-c2cc(=O)c3ccccc3o2)c1N` [PD98059]: the “sensitivity of cells lacking ERG6 and IRA2” value in the test on erg6Δ ira2Δ cells [2] (50 μM PD98059) is reported as “sensitive”; with erg6Δ ira2Δ cells [2] (25 μL (so in the source) PD98059, 24 hours), “less sensitive”. For the same compound, the “sensitivity of growth to compound” value in the test on erg6Δ ira2Δ cells [2] is “sensitized; also recorded: increased sensitivity”; in the test on erg6Δ cells (erg6Δ alone, 96-well plate growth assay), “not sensitive”. Further, the “growth in MPNST lines” value in the test with MPNST cell lines is listed as “inhibiting growth”. For the same compound, in the test with MPNST cell lines (NF1−1− MPNST cell line relative to NF1+/+ MPNST line), the “selective suppression of growth of NF1-/- MPNST cell line relative to NF1+/+ MPNST line” value is “selectively suppress growth”. Further, in the test with erg6Δ ira2Δ cells [1], the “sensitivity of growth on agar media” value is “increased sensitivity”.
`N=C(N)SCc1cn(-c2ccccc2)nc1-c1cccc(Br)c1` [Formula II]: the “sensitivity of growth to compound” value with erg6Δ ira2Δ cells [2] is on record as “differential sensitivity”. Besides, the “Effect of Compound of Formula II” value with erg6Δ ira2Δ cells [2] (genotype ira2Δ, erg6Δ, OD 595 nm after 24 hours) is “Inhibition at 10 uM and 50 uM”; with erg6Δ cells (genotype erg6Δ, OD 595 nm after 24 hours), “Inhibition at 50 uM”. The “Effect of Compound of Formula II (inhibition at concentration)” value in the test on erg6Δ iralΔ ira2Δ is “Inhibition at less than 10 uM”. In addition, in the test on cells lacking IRA2 (FIG. 7), the “growth of cells lacking IRA2” value is on record as “Growth inhibition”.
